Measured values taken from paper PMC7366380, “Discovery of a Potent and Selective Covalent Inhibitor and Activity-Based Probe for the Deubiquitylating Enzyme UCHL1, with Antifibrotic Activity” (Journal of the American Chemical Society, 2020).
Values joined by “and” are separate entries in the source; they are usually repeats but may differ in a detail not shown here. Identical values can stand only once.

Experiments:
Assay in all cases: In-cell proteome-wide competitive ABPP, HEK293: other DUBs and proteins
[1] = target: DUBs and other proteins in HEK293 cells (Homo sapiens, UniProt Q92905); details: for Log2 reporter intensity values, COPS5: 20 nM ABP 2 (10 min), no competitor, TMT replicates
[2] = target: T1, DUBs and other proteins in HEK293 cells (Homo sapiens, UniProt Q86UV5); details: for Log2 reporter intensity values: USP48, 20 nM ABP 2, DMSO subtracted
T1 sequence (Q86UV5 1-1035): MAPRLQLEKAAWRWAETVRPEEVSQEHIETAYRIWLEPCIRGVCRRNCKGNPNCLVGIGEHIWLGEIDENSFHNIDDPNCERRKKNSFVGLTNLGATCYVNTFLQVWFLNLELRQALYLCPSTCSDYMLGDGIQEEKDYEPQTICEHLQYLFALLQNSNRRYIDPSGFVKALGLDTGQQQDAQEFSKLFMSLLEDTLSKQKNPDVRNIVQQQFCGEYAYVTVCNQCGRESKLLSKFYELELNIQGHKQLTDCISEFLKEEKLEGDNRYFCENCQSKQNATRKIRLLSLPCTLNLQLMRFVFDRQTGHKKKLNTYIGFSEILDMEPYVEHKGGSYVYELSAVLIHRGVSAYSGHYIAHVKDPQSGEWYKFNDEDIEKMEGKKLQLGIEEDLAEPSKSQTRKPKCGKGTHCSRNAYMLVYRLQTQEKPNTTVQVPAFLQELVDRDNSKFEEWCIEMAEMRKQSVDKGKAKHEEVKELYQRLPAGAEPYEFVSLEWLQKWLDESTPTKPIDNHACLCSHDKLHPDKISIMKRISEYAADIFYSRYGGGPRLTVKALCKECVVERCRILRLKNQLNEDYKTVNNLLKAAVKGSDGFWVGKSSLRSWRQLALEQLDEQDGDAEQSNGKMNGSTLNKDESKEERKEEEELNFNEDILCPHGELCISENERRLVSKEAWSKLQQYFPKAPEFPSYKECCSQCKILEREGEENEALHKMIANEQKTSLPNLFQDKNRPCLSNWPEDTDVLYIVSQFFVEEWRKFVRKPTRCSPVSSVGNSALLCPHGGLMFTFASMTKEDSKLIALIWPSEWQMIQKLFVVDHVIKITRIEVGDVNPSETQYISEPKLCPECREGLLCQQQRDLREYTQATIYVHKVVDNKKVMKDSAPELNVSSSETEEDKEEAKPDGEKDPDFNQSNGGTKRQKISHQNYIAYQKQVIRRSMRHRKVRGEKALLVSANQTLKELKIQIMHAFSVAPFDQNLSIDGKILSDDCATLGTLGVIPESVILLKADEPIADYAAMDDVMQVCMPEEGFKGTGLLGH

[3] = target: T2, DUBs and other proteins in HEK293 cells (Homo sapiens, UniProt P45974); details: replicates A-C
T2 sequence (P45974 1-858): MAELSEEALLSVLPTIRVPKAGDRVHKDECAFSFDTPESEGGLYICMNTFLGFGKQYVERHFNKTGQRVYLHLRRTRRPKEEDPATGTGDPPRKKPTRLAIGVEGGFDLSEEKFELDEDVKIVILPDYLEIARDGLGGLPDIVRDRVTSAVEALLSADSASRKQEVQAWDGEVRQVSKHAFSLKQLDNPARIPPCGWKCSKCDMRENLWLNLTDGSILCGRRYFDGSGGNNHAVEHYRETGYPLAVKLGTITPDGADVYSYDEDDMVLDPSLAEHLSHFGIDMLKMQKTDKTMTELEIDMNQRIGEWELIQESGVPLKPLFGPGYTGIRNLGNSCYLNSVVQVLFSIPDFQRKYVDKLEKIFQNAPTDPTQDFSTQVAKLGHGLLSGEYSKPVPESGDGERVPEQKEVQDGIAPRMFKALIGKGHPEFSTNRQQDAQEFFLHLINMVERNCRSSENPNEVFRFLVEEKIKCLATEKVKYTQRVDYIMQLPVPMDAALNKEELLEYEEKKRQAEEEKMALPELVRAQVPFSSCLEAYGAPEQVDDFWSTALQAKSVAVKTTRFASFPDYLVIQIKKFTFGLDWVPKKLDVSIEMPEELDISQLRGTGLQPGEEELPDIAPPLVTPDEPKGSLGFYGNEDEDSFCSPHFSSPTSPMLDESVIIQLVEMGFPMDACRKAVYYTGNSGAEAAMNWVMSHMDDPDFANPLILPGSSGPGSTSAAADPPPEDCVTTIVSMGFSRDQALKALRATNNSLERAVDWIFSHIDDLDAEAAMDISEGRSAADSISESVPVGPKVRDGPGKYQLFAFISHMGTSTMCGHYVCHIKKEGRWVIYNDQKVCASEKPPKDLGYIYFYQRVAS

[4] = target: DUBs and other proteins in HEK293 cells (Homo sapiens, UniProt O15372); details: for Log2 reporter intensity values, EIF3H: 20 nM ABP 2 (10 min), no competitor, TMT replicates
[5] = target: DUBs and other proteins in HEK293 cells (Homo sapiens, UniProt Q93008); details: replicates A-C
[6] = 20 nM ABP 2 alone, DMSO substract (FC), replicates A-C
[7] = 20 nM ABP 2 alone, DMSO substract (FC)

DUBs and other proteins in HEK293 cells (Homo sapiens, UniProt Q92905), sequence (Q92905 whole entry): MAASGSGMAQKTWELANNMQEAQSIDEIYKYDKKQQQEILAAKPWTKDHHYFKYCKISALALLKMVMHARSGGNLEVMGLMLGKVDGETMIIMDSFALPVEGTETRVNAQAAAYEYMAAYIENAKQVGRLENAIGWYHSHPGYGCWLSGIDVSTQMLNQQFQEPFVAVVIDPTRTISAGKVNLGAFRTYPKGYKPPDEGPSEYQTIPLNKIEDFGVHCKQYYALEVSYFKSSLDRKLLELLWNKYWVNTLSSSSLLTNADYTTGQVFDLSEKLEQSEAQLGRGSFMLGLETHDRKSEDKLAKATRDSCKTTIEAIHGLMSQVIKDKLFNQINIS
DUBs and other proteins in HEK293 cells (Homo sapiens, UniProt O15372), sequence (O15372 whole entry): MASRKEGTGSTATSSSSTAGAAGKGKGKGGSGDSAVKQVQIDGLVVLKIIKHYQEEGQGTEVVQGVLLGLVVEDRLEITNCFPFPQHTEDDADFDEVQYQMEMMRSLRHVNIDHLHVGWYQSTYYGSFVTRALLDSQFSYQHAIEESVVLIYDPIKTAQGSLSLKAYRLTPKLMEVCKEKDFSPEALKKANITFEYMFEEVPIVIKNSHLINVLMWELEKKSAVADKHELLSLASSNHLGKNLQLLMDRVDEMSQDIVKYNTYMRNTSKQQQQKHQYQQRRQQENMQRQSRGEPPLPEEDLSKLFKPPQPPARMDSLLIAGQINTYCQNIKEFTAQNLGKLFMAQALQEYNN
DUBs and other proteins in HEK293 cells (Homo sapiens, UniProt Q93008), sequence (Q93008 whole entry): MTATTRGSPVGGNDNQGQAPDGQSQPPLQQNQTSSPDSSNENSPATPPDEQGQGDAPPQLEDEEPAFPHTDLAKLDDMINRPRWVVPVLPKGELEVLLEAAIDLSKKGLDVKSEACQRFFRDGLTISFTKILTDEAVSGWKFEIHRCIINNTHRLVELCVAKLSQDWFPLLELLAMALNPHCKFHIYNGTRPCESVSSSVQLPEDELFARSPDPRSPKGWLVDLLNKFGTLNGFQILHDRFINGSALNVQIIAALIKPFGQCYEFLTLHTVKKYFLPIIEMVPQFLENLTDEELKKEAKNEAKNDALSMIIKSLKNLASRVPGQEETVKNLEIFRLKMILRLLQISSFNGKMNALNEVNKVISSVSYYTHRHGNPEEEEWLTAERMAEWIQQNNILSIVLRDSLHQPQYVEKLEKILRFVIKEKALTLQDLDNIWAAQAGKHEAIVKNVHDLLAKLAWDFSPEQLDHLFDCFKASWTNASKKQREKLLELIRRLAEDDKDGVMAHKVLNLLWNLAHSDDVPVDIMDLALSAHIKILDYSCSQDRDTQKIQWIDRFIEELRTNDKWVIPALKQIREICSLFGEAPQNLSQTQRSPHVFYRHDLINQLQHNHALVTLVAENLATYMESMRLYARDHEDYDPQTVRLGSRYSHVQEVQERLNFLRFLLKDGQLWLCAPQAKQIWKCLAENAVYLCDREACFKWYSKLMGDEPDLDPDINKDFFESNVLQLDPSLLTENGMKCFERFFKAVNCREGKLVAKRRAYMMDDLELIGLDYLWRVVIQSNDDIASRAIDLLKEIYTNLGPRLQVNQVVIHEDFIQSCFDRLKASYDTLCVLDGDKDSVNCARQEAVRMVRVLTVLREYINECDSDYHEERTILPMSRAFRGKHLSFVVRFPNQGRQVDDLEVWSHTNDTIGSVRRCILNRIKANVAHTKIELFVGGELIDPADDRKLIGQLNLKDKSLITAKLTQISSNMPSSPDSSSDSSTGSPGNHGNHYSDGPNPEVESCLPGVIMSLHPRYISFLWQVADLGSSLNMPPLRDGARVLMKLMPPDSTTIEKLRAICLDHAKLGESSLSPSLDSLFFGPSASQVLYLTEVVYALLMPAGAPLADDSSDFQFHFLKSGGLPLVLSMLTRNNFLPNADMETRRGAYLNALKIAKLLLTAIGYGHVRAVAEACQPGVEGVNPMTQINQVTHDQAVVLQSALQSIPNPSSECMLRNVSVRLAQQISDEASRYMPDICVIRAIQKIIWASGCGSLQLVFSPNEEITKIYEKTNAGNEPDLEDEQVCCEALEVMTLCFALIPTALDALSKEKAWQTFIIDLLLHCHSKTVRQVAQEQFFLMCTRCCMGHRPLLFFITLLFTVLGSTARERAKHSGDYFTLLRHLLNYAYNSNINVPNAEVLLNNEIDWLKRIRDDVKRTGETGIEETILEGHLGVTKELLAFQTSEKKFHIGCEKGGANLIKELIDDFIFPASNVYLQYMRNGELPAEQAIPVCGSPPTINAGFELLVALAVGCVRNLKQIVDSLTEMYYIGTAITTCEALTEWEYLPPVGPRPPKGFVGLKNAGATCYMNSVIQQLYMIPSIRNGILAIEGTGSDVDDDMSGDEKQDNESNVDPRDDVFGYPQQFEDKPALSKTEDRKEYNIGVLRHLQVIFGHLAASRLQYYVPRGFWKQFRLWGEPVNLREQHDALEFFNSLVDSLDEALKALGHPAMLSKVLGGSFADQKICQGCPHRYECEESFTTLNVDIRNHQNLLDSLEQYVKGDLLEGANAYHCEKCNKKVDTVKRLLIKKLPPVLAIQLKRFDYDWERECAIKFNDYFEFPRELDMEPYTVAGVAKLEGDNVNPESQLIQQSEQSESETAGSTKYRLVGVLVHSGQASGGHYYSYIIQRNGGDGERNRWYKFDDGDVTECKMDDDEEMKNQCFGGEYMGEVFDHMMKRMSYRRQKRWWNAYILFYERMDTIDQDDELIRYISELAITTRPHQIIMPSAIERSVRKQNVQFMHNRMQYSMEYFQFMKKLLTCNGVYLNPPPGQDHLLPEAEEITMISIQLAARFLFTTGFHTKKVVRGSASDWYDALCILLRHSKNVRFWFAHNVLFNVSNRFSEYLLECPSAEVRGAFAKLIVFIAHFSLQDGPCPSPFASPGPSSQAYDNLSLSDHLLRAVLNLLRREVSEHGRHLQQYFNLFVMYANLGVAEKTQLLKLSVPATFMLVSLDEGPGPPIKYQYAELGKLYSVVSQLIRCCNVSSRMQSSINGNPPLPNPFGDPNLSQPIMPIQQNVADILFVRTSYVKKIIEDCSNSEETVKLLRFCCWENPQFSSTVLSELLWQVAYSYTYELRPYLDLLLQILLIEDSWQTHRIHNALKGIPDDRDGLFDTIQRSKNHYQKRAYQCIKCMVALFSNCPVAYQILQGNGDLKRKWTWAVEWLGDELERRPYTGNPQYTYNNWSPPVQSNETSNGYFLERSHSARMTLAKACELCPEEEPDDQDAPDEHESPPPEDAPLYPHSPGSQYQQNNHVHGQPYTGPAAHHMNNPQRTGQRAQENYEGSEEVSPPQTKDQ

With `C#Cc1cnc2[nH]cc(-c3cccc4c3CCN4C(=O)[C@@H]3CCCN3C#N)c2c1` [Compound 2] the “Log2 reporter intensity values, COPS5” value ([1]; All values) was 0.09368 and -0.02632 and 0.2453, the “Log2 reporter intensity values, COPS5” value ([1]; DMSO subtracted) was 0.1518 and 0.03179 and 0.3034 and the “Log2 reporter intensity values: COPS5” value [1, 6] was 1.111 and 1.022 and 1.234. For the same compound, the “Log2 reporter intensity values” ([1]; COPS5, 20 nM ABP 2, DMSO subtracted, replicates A-C) was 0.1518 and 0.03179 and 0.3034 and 0.1109 and 0.0222 and 0.2339, the “Log2 t-test Difference” value ([1]; COPS5, ABP 2 - 20 nM) was 0.1623 and the “Log2 reporter intensity values: USP48” value ([2]; 20 nM ABP 2 alone, DMSO substract (FC), replicates A-B) was 0.9588 and 0.9788. For the same compound, the “Log2 reporter intensity values” ([2]; replicates A-B (C NaN)) was -0.04252 and -0.02245, the “Log2 reporter intensity values” ([2]; replicates A-C) was -0.06076 and -0.03088 and the “Log2 reporter intensity values: USP5” value [3, 7] was 0.9172 and 0.9432 and 0.9583. The “Log2 reporter intensity values” ([3]; USP5, 20 nM ABP 2, DMSO subtracted) was -0.1247 and -0.08438 and -0.06148 and -0.08313 and -0.05714, the “Log2 reporter intensity values, EIF3H” value ([4]; All values) was 0.02449 and 0.02357 and 0.02975 and the “Log2 reporter intensity values, EIF3H” value ([4]; DMSO subtracted) was -0.005103 and -0.006015 and 0.0001635. The “Log2 reporter intensity values: EIF3H” value [4, 6] was 0.9965 and 0.9958 and 1, the “Log2 reporter intensity values” ([4]; EIF3H, 20 nM ABP 2, DMSO subtracted, replicates A-C) was -0.005103 and -0.006015 and 0.0001635 and -0.003675 and -0.004305 and -3.08E-05 and the “Log2 t-test Difference” value ([4]; EIF3H, ABP 2 - 20 nM) was -0.003651. The “Log2 reporter intensity values: USP9X;USP9Y” value [5, 7] was 0.9211 and 0.9416 and 0.9589 and the “Log2 reporter intensity values” ([5]; USP9X;USP9Y, 20 nM ABP 2, DMSO subtracted) was -0.08683 and -0.06047 and -0.07892 and -0.05844 and -0.04108.
